Data reported in patent US11912693B2, “Compounds for modulating S1P1 activity and methods of using the same” (TREVENA, INC., priority 2017, dated 2024).

Legend:
[1] = biological target: T1, human sphingosine-1-phosphate receptor 1 (S1P1) (Homo sapiens (Human), UniProt P21453); assay: Inhibition of cAMP production (HTRF cAMP HiRange), S1P1 CHO-K1 cells; assay type: cell-based; details: for hS1P1 cAMP SPAN / Emax: efficacy (SPAN) normalized to fingolimod; for Emax: CHO-K1, read-out: hS1P1 cAMP SPAN
Protocol: (§1) Stable clonal Chinese hamster ovary K1 (CHO-K1) cells co-expressing EA-β-arrestin2 and the human sphingosine-1-phosphate receptor 1 (NM_001400, S1P1) with a C-terminal Prolink™ tag were purchased from DiscoverX corporation (Cat #: 93-0207C2).
(§2) Cell lines were cultured in AssayComplete™ Media 6 (DiscoverX Corporation, Cat #: 920018GF2) at 37° C. and 5% CO2 in a humidified CO2 and temperature-controlled incubator. To begin assay plating, cells were washed with dulbecco's phosphate buffered saline (CellGro, Cat #: 21-031-CV) and lifted from the culturing flask by incubation (37° C., 5 min) with CellStripper (Cellgro, Cat #: 25-056-CI). […] Plated cells were incubated overnight at 37° C. and 5% CO2 in a humidified CO2 and temperature-controlled incubator. Detecting Inhibition of cAMP Production
Agonist-promoted G-protein responses were determined by measuring changes in intracellular cAMP using the HTRF® cAMP HiRange kit (CisBio, Cat #: 62AM6PEJ) based on time-resolved fluorescence resonance energy transfer (TR-FRET) technology. […] Following a 30-minute incubation at 37° C. and 5% CO2 in a humidified CO2 and temperature-controlled incubator, the components of the cAMP HiRange kit were added as per the manufacturer's instructions. After an hour incubation at room temperature, plates were analyzed by a BMG PheraStar microplate reader.
(§3) The tables below include the efficacy of the compound as compared to a positive control, referred to as “SPAN”. These values are normalized to fingolimod, a known agonist of the sphingosine-1-phosphate 1 receptor. The tables also include potency values (pEC50) for modulating discrete receptor-mediated activities (inhibition of cAMP production and […] recruitment).
Target sequence in this assay (P21453 whole entry, looked up): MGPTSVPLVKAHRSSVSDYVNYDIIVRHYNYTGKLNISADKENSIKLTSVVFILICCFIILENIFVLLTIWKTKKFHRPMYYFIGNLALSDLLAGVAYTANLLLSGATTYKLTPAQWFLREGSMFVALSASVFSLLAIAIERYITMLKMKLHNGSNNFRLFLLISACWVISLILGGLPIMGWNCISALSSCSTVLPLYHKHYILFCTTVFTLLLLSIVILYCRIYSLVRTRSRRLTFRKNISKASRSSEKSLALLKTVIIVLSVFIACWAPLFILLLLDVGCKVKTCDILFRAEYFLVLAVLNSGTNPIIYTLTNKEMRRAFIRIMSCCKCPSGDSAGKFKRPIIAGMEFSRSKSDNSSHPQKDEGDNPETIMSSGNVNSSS

[2] = biological target: T1, human sphingosine-1-phosphate receptor 1 (S1P1); assay: β-Arrestin2 recruitment assay (PathHunter), S1P1 CHO-K1 cells; assay type: cell-based; details: for hS1P1 B-arrestin2 SPAN / Emax: efficacy (SPAN) normalized to fingolimod; for hS1P1 B-arrestin2 pEC50: β-arrestin2 recruitment, S1P1 CHO-K1 cells; for Emax: CHO-K1, read-out: hS1P1 B-arrestin2 SPAN
Protocol: as §1, §2
Target sequence in this assay (P21453 whole entry, looked up): as above
Target sequence in this assay (P32121 whole entry partner, looked up): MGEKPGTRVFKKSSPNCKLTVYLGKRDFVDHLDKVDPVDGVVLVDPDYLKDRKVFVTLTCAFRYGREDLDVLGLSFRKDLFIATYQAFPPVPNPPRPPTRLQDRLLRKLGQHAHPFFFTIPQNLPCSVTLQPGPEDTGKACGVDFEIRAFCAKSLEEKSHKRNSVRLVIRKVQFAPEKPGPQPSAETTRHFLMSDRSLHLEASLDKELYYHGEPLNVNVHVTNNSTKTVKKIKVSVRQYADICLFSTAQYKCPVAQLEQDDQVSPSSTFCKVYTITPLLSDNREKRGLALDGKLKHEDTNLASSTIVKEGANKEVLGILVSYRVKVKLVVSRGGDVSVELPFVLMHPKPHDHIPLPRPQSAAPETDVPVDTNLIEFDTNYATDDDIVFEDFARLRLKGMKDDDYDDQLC
Agonist-promoted β-arrestin2 recruitment to the sphingosine-1-phosphate 1 receptor was determined using the β-arrestin PathHunter®) Detection kit (DiscoverX Corporation, Cat #: 93-0001). […] In cells that stably express these fusion proteins, stimulation with a cognate agonist results in the interaction of […] and the Prolink™-tagged GPCR. This allows the complementation of the two β-galactosidase fragments and results in the formation of a functional enzyme with β-galactosidase activity. […] Following a 60 minute incubation at 37° C. and 5% CO2 in a humidified CO2 and temperature-controlled incubator, the components of the β-arrestin PathHunter® Detection kit were added as per the manufacturer's instructions. After an hour incubation at room temperature, plates were analyzed by a BMG PheraStar microplate reader.
as §3

[3] = inhibition of cAMP production, S1P1 CHO-K1 cells

Compound	hS1P1 cAMP pEC50 [1, 3]	hS1P1 B-arrestin2 pEC50 [2]	Emax [1] [%]	EC50 ([1]; inhibition of cAMP production, S1P1 CHO-K1 cells, read-out: hS1P1 cAMP pEC50 (converted)) [nM]	Emax [2] [%]	hS1P1 cAMP SPAN [1]	hS1P1 B-arrestin2 SPAN [2]
Fc1cc(-c2noc(-c3ccc4c(c3)nnn4C3CCCC3)n2)ccc1C(F)(F)F [Compound 1, 1-cyclopentyl-5-{3-[3-fluoro-4-(trifluoromethyl)phenyl]-1,2,4-oxadiazol-5-yl}-1H-1,2,3-benzotriazole]	<6.5	<5	–	–	–	–	–
CCn1nnc2cc(-c3noc(-c4ccccc4Br)n3)ccc21 [Compound 2, 5-(2-bromophenyl)-3-(1-ethyl-1H-benzo[d][1,2,3]triazol-5-yl)-1,2,4-oxadiazole]	–	>5	> 75	> 316	< 75	–	–
Cc1ccncc1-c1noc(-c2ccc3nnn(CC(C)C)c3c2)n1 [Compound 3, 1-(2-methylpropyl)-6-[3-(4-methylpyridin-3-yl)-1,2,4-oxadiazol-5-yl]-1H-1,2,3-benzotriazole]	>6.5	>5	–	–	–	–	–
FC(F)(F)c1cc(-c2noc(-c3ccc4c(c3)nnn4C3CCCC3)n2)ccc1OCc1cccnc1 [Compound 4, 1-cyclopentyl-5-{3-[4-(pyridin-3-ylmethoxy)-3-(trifluoromethyl)phenyl]-1,2,4-oxadiazol-5-yl}-1H-1,2,3-benzotriazole]	<6.5	<5	< 75	–	< 75	–	–
CCCn1nnc2cc(-c3nc(-c4ccc(F)cc4)no3)ccc21 [Compound 5, 5-[3-(4-fluorophenyl)-1,2,4-oxadiazol-5-yl]-1-propyl-1H-1,2,3-benzotriazole]	<6.5	<5	–	–	–	–	–
Cc1cnc(-c2noc(-c3ccc4c(c3)nnn4C3CCOCC3)n2)cn1 [Compound 6, 5-[3-(5-methylpyrazin-2-yl)-1,2,4-oxadiazol-5-yl]-1-(oxan-4-yl)-1H-1,2,3-benzotriazole]	<6.5	<5	< 75	–	< 75	–	–
c1ccc(-c2noc(-c3ccc4c(c3)nnn4C3CCCC3)n2)cc1 [Compound 7, 1-cyclopentyl-5-(3-phenyl-1,2,4-oxadiazol-5-yl)-1H-1,2,3-benzotriazole]	<6.5	<5	–	–	–	–	–
CC(C)n1nnc2cc(-c3nc(-c4ccc(-c5ccccc5)cn4)no3)ccc21 [Compound 9, 5-[3-(5-phenylpyridin-2-yl)-1,2,4-oxadiazol-5-yl]-1-(propan-2-yl)-1H-1,2,3-benzotriazole]	<6.5	<5	–	–	–	–	–
FC(F)(F)Oc1cccc(-c2nc(-c3ccc4c(c3)nnn4C3CCCC3)no2)c1 [Compound 10, 3-(1-cyclopentyl-1H-benzo[d][1,2,3]triazol-5-yl)-5-(3-(trifluoromethoxy)phenyl)-1,2,4-oxadiazole]	<6.5	<5	–	–	–	<75	<75
Cc1cccc(-c2noc(-c3ccc4c(c3)nnn4C3CCCCC3)n2)c1 [Compound 11, 1-cyclohexyl-5-[3-(3-methylphenyl)-1,2,4-oxadiazol-5-yl]-1H-1,2,3-benzotriazole]	<6.5	<5	–	–	–	–	–
FC(F)(F)c1cccc(-c2nc(-c3ccc4c(c3)nnn4C3CCCC3)no2)c1 [Compound 12, 3-(1-cyclopentyl-1H-benzo[d][1,2,3]triazol-5-yl)-5-(3-(trifluoromethyl)phenyl)-1,2,4-oxadiazole]	<6.5	<5	–	–	–	–	–
Oc1ccc(-c2noc(-c3ccc4c(c3)nnn4C3CCCC3)n2)cc1 [Compound 13, 4-[5-(1-cyclopentyl-1H-1,2,3-benzotriazol-5-yl)-1,2,4-oxadiazol-3-yl]phenol]	>6.5	>5	–	–	–	–	–
CC(C)Oc1ccc(-c2nc(-c3ccc4c(c3)nnn4C3CCCC3)no2)cc1C(F)(F)F [Compound 14, 3-(1-cyclopentyl-1H-benzo[d][1,2,3]triazol-5-yl)-5-(4-isopropoxy-3-(trifluoromethyl)phenyl)-1,2,4-oxadiazole]	>6.5	>5	< 75	–	< 75	–	–
CC(C)n1nnc2cc(-c3nc(-c4ccc(Oc5ccccc5)cc4)no3)ccc21 [Compound 15, 5-[3-(4-phenoxyphenyl)-1,2,4-oxadiazol-5-yl]-1-(propan-2-yl)-1H-1,2,3-benzotriazole]	<6.5	<5	–	–	–	–	–
CSc1ccccc1-c1nc(-c2ccc3c(c2)nnn3C2CCCC2)no1 [Compound 16, 3-(1-cyclopentyl-1H-benzo[d][1,2,3]triazol-5-yl)-5-(2-(methylthio)phenyl)-1,2,4-oxadiazole]	<6.5	>5	–	–	–	–	–
CC(C)n1nnc2cc(-c3nc(-c4ccccc4Cl)no3)ccc21 [Compound 17, 5-[3-(2-chlorophenyl)-1,2,4-oxadiazol-5-yl]-1-(propan-2-yl)-1H-1,2,3-benzotriazole]	>6.5	>5	–	–	–	–	–
CC(C)n1nnc2cc(-c3noc(C4CCC4)n3)ccc21 [Compound 18, 5-(5-cyclobutyl-1,2,4-oxadiazol-3-yl)-1-(propan-2-yl)-1H-1,2,3-benzotriazole]	<6.5	<5	–	–	–	–	–

Continued, in another order:

hS1P1 cAMP pEC50 [1, 3]	hS1P1 B-arrestin2 pEC50 [2]	Emax [1] [%]	EC50 ([1]; inhibition of cAMP production, S1P1 CHO-K1 cells, read-out: hS1P1 cAMP pEC50 (converted)) [nM]	Emax [2] [%]	Compound	hS1P1 cAMP SPAN [1]	hS1P1 B-arrestin2 SPAN [2]
<6.5	>5	–	–	–	2-(5-(5-(2- chlorophenyl)-1,2,4- oxadiazol-3-yl)-1H- benzo[d][1,2,3]triazol- 1-yl)-2-methylpropan- 1-ol [Compound 618]	<75	<75
>6.5	>5	–	–	–	CC(C)Oc1ccc(-c2noc(-c3ccc4c(c3)nnn4C(C)C)n2)cc1C(F)(F)F [Compound 20, 3-(4-isopropoxy-3-(trifluoromethyl)phenyl)-5-(1-isopropyl-1H-benzo[d][1,2,3]triazol-5-yl)-1,2,4-oxadiazole]	–	–
<6.5	<5	–	–	–	CC(C)n1nnc2cc(-c3nc(-c4ccccc4F)co3)ccc21 [Compound 21, 5-[4-(2-fluorophenyl)-1,3-oxazol-2-yl]-1-(propan-2-yl)-1H-1,2,3-benzotriazole]	–	–
<6.5	<5	–	–	–	CC(C)n1nnc2cc(-c3noc(-c4cccc(COc5ccccc5)c4)n3)ccc21 [Compound 23, 3-(1-isopropyl-1H-benzo[d][1,2,3]triazol-5-yl)-5-(3-(phenoxymethyl)phenyl)-1,2,4-oxadiazole]	–	–
<6.5	<5	–	–	–	OCCCn1nnc2cc(-c3noc(-c4ccccc4Br)n3)ccc21 [Compound 24, 3-(5-(5-(2-bromophenyl)-1,2,4-oxadiazol-3-yl)-1H-benzo[d][1,2,3]triazol-1-yl)propan-1-ol]	–	–
<6.5	<5	–	–	–	CC(C)c1ccc(-c2nc(-c3ccc4c(c3)nnn4C(C)C)no2)cn1 [Compound 25, 3-(1-isopropyl-1H-benzo[d][1,2,3]triazol-5-yl)-5-(6-isopropylpyridin-3-yl)-1,2,4-oxadiazole]	–	–
<6.5	>5	> 75	–	< 75	CCC1(CC)CC(=O)c2cc(-c3nc(-c4ccncc4)no3)ccc2O1 [Compound 27, 2,2-diethyl-6-[3-(pyridin-4-yl)-1,2,4-oxadiazol-5-yl]-3,4-dihydro-2H-1-benzopyran-4-one]	–	–
<6.5	<5	> 75	–	> 75	CCC1(CC)CC(=O)c2cc(-c3nnc(-c4cccnc4)o3)ccc2O1 [Compound 28, 2,2-diethyl-6-(5-(pyridin-3-yl)-1,3,4-oxadiazol-2-yl)chroman-4-one]	–	–
<6.5	<5	–	–	–	CCC1(CC)CC(=O)c2cc(-c3nc(-c4ccc5c(c4)nnn5C(C)C)ns3)ccc2O1 [Compound 29, 2,2-diethyl-6-(3-(1-isopropyl-1H-benzo[d][1,2,3]triazol-5-yl)-1,2,4-thiadiazol-5-yl)chroman-4-one]	–	–
